Reference: US8222425B2, “Organic compounds and their uses” (Novartis AG, priority 2007, dated 2012)
≈ marks a conversion by molar mass, not a printed value. Like-named read-outs stand apart in the source and are kept apart here.

Key:
[1] = Thermodynamic solubility; type: physicochemical; settings: thermodynamic from solid
Method: Thermodynamic solubility for the compounds of the invention listed in Table C is measured by a published literature procedure, e.g., Liping Zhou, et al., J. Pharm. Sci. (2007) 96(11): 3052-3071.
The DMSO stocks of test compounds previously dissolved in 25 μL of DMSO (˜10 mM) in mini-prep vial (MPV: Whatman, with PVDF filter and 0.45 μm pore size) chamber were evaporated via a GeneVac HT-4X evaporator for approximately 1 hour, at the guard temperature of 30° C. An aliquot of 250 μL buffer solution (pH 1.0 or 6.8) was added into each MPV chamber containing powders reconstituted from DMSO stock solutions. The MPV filter plungers were pushed down into the chamber until the membrane of the filter plunger slightly touched the surface of the buffer to promote equilibrium between the two compartments and to minimize the adsorption due to non-specific binding of samples during the subsequent 24-hr incubation (at 600 RPM at room temperature). Immediately after the 24-hr incubation, the plungers were further pushed down to the bottom of the chambers. More solution was pushed through the membrane and entered the plunger compartment. The filter/chamber assemblies were then put on a shaker for another 30 minutes at 600 RPM. Afterwards, filtrates were further diluted (1:10) with 50/50 acetonitrile/water solvent followed by a thorough mixing process. Both plates with diluted and undiluted filtrates were analyzed by HPLC and quantified against the four-point standard dilution curve of the same test compound (5 μM, 35 μM, 65 μM and 100 μM, respectively). In the current study, solubility reflects the average of triplicate samples tested at each pH.

[2] = Pharmacokinetic profile in rats; parameters: species or system Sprague Dawley rats; settings: rat, in vivo; for Cmax: Sprague Dawley; for Cmax / AUC: po, 10 mg/kg
Method: Compounds listed in Table D are administered as a solution orally via gavage at 10 mg/kg to Sprague Dawley rats at a dosing volume of 10 ml/kg. Samples are collected via a surgically implanted cannula at selected timepoints deemed necessary to characterize pharmacokinetic parameters. Blood samples are placed on wet ice and spun down to plasma within 5 minutes of timepoint collection. Plasma samples are frozen until bioanalytical analysis. Compounds listed in Table D are administered intravenously into a surgically implanted cannula as a solution at 1 mg/kg to Sprague Dawley rats at a dosing volume of 1 ml/kg. Samples are collected via another surgically implanted cannula at selected timepoints deemed necessary to characterize pharmacokinetic parameters. Blood samples are placed on wet ice and spun down to plasma within 5 minutes of timepoint collection. Plasma samples are frozen until bioanalytical analysis.

[3] = tested on: HCV; settings: ribavirin alone; cited from earlier work

| Compound | solubility at 24 h ([1]; pH 1, simulated gastric fluid) [µM] | solubility at 24 h ([1]; pH 6.8, aqueous buffer) [µM] | Cmax [2] [nM] | AUC [2] [nM·h/mg/kg] | other results |
| --- | --- | --- | --- | --- | --- |
| CCC[C@H](NC(=O)[C@@H]1C[C@@]2(CN1C(=O)[C@@H](NC(=O)[C@@H](NC(=O)[C@@H]1CCCCN1C(C)C)C(C)(C)C)C1CCCCC1)C(C)(C)C21CCC1)C(=O)C(=O)NC1CC1 [Compound A-45] | 720 (≈ 562 µg/mL) | < 5 |  |  |  |
| C=C[C@@H]1C[C@]1(NC(=O)[C@@H]1C[C@@]2(CN1C(=O)[C@@H](NC(=O)[C@@H](NC(=O)[C@@H]1CCCCN1C(C)C)C(C)(C)C)C(C)(C)C)C(C)(C)C21CCC1)C(=O)NS(=O)(=O)C1CC1 [Compound A-7] |  |  |  |  | solubility at 24 h ([1]; aqueous buffer, thermodynamic solubility, buffer pH 6.8, 24-hr incubation at room temperature, read-out: Solubility (pH 6.8)): 840 µM (≈ 673 µg/mL); solubility at 24 h ([1]; simulated gastric fluid, thermodynamic solubility, buffer pH 1.0, 24-hr incubation at room temperature, read-out: Solubility (pH 1)): 900 µM (≈ 721 µg/mL) |
| CCC[C@H](NC(=O)[C@@H]1C[C@@]2(CN1C(=O)[C@@H](NC(=O)[C@@H](NC(=O)[C@@H]1CCCCN1C(C)C)C1CCCCC1)C(C)(C)C)C(C)(C)C21CCC1)C(=O)C(=O)NC1CC1 [Compound A-6] | 930 (≈ 726 µg/mL) | < 5 |  |  |  |
| CCC[C@H](NC(=O)[C@@H]1C[C@@]2(CN1C(=O)[C@@H](NC(=O)[C@@H](NC(=O)[C@@H]1CCN1C(C)C)C(C)(C)C)C(C)(C)C)C(C)(C)C21CCC1)C(=O)C(=O)NC1CC1 [Compound A-73] | 810 (≈ 589 µg/mL) | < 5 |  |  |  |
| CCC[C@H](NC(=O)C1C[C@@]2(CN1C(=O)[C@@H](NC(=O)[C@@H](NC(=O)[C@@H]1CCCN1CC)C1CCCCC1)C(C)(C)C)C(C)(C)C21CCC1)C(=O)C(=O)NC1CC1 (stereo partly shown) [Compound A-10] | 910 (≈ 685 µg/mL) | 24 (≈ 18.1 µg/mL) | 1470 | 460 | Bioavailability [2]: 46 % F |
| CCC[C@H](NC(=O)[C@@H]1C[C@@]2(CN1C(=O)[C@@H](NC(=O)[C@@H](NC(=O)[C@H]1CCCCN1C(C)C)C1CCCCC1)C(C)(C)C)C(C)(C)C21CCC1)C(=O)C(=O)NC1CC1 [Compound A-5] | 480 (≈ 375 µg/mL) | 44 (≈ 34.4 µg/mL) |  |  |  |
| CCC[C@H](NC(=O)[C@@H]1C[C@@]2(CN1C(=O)[C@@H](NC(=O)[C@@H](NC(=O)[C@@H]1CCCN(C)C1)C(C)(C)C)C(C)(C)C)C(C)(C)C21CCC1)C(=O)C(=O)NC1CC1 [Compound A-58] | 960 (≈ 698 µg/mL) | 930 (≈ 676 µg/mL) |  |  |  |
| CCCC(NC(=O)[C@@H]1C[C@@]2(CN1C(=O)[C@@H](NC(=O)[C@@H](NC(=O)C1CCN1C(C)(C)C)C1CCCCC1)C(C)(C)C)C(C)(C)C21CCC1)C(=O)C(=O)NC1CC1 (stereo partly shown) [Compound A-64] | 710 (≈ 545 µg/mL) | < 85 | 904 | 274 |  |
| CCC[C@H](NC(=O)[C@@H]1C[C@@]2(CN1C(=O)[C@@H](NC(=O)[C@@H](NC(=O)[C@H]1CCCCN1CC)C(C)(C)C)C(C)(C)C)C(C)(C)C21CCC1)C(=O)C(=O)NC1CC1 [Compound A-72] | 840 (≈ 622 µg/mL) | 340 (≈ 252 µg/mL) |  |  |  |
| CCC[C@H](NC(=O)C1C[C@@]2(CN1C(=O)[C@@H](NC(=O)[C@@H](NC(=O)[C@H]1CCCN1CC)C1CCCCC1)C(C)(C)C)C(C)(C)C21CCC1)C(=O)C(=O)NC1CC1 (stereo partly shown) [Compound A-11] | 870 (≈ 655 µg/mL) | 92 (≈ 69.3 µg/mL) |  |  |  |
| CCC[C@H](NC(=O)[C@@H]1C[C@@]2(CN1C(=O)[C@@H](NC(=O)[C@@H](NC(=O)[C@@H]1CCCN(C)C1)C1CCCCC1)C(C)(C)C)C(C)(C)C21CCC1)C(=O)C(=O)NC1CC1 [Compound A-50] | 830 (≈ 625 µg/mL) | 240 (≈ 181 µg/mL) |  |  |  |
| CCC[C@H](NC(=O)[C@@H]1C[C@@]2(CN1C(=O)[C@@H](NC(=O)[C@@H](NC(=O)[C@@H]1CCCN(CC)C1)C1CCCCC1)C(C)(C)C)C(C)(C)C21CCC1)C(=O)C(=O)NC1CC1 [Compound A-15] | 700 (≈ 537 µg/mL) | 170 (≈ 130 µg/mL) | 2030 | 474 | Bioavailability [2]: 42 % F |
| CCC[C@H](NC(=O)[C@@H]1C[C@@]2(CN1C(=O)[C@@H](NC(=O)[C@@H](NC(=O)[C@H]1CCCN(CC)C1)C(C)(C)C)C(C)(C)C)C(C)(C)C21CCC1)C(=O)C(=O)NC1CC1 [Compound A-59] | 840 (≈ 622 µg/mL) | 550 (≈ 408 µg/mL) | 653 | 203 |  |
| NC(=O)c1ncn([C@@H]2O[C@H](CO)[C@@H](O)[C@H]2O)n1 [Ribavirin, 1-β-D-ribofuranosyl-1-1,2,4-triazole-3-caroxamide] |  |  |  |  | patients in whom serum amino transferase levels are reduced to normal [3]: 40% |
| CCC[C@H](NC(=O)[C@@H]1C[C@@]2(CN1C(=O)[C@@H](NC(=O)[C@@H](NC(=O)[C@@H]1CCCCN1C(C)C)C(C)(C)C)C(C)(C)C)C(C)(C)C21CCC1)C(=O)C(=O)NC1CCC1 [Compound A-82] | 830 (≈ 638 µg/mL) | < 5 |  |  |  |
| CCC[C@H](NC(=O)[C@@H]1C[C@@]2(CN1C(=O)[C@@H](NC(=O)[C@@H](NC(=O)[C@@H]1CN(C)CCN1C(C)C)C1CCCCC1)C(C)(C)C)C(C)(C)C21CCC1)C(=O)C(=O)NC1CC1 [Compound A-43] | 640 (≈ 510 µg/mL) | 290 (≈ 231 µg/mL) |  |  |  |
| CCC[C@H](NC(=O)[C@@H]1C[C@@]2(CN1C(=O)[C@@H](NC(=O)[C@@H](NC(=O)[C@@H]1CCCN1C)C1CCCCC1)C(C)(C)C)C(C)(C)C21CCC1)C(=O)C(=O)NC1CC1 [Compound A-33] | 790 (≈ 584 µg/mL) | 110 (≈ 81.3 µg/mL) |  |  |  |
| CCC[C@H](NC(=O)[C@@H]1C[C@@]2(CN1C(=O)[C@@H](NC(=O)[C@@H](NC(=O)[C@@H]1CCCCN1C(C)C)C(C)(C)C)C(C)(C)C)C(C)(C)C21CCC1)C(=O)C(=O)NC1CC1 [Compound A-44] | 690 (≈ 521 µg/mL) | 64 (≈ 48.3 µg/mL) | 1110 | 523 | Bioavailability [2]: 43 % F |
| CCCC(NC(=O)[C@@H]1C[C@@]2(CN1C(=O)[C@@H](NC(=O)[C@@H](NC(=O)[C@@H]1CCCN(C(C)C)C1)C1CCCCC1)C(C)(C)C)C(C)(C)C21CCC1)C(=O)C(=O)NC1CC1 (stereo in doubt) [Compound A-4] | 630 (≈ 492 µg/mL) | 200 (≈ 156 µg/mL) |  |  |  |
| CCC[C@H](NC(=O)[C@@H]1C[C@@]2(CN1C(=O)[C@@H](NC(=O)[C@@H](NC(=O)[C@@H]1CCN1C(C)C)C1CCCCC1)C(C)(C)C)C(C)(C)C21CCC1)C(=O)C(=O)NC1CC1 [Compound A-62] | 930 (≈ 700 µg/mL) | < 5 | 796 | 241 | Bioavailability [2]: 36 % F |
| CCC[C@H](NC(=O)[C@@H]1C[C@@]2(CN1C(=O)[C@@H](NC(=O)[C@@H](NC(=O)[C@@H]1CCCCN1C(C)C)C1CCCCC1)C(C)(C)C)C(C)(C)C21CCC1)C(=O)C(=O)NC(C)C [Compound A-54] | 790 (≈ 619 µg/mL) | 28 (≈ 21.9 µg/mL) | 1430 | 416 | Bioavailability [2]: 28 % F |
| CCC[C@H](NC(=O)[C@@H]1C[C@@]2(CN1C(=O)[C@@H](NC(=O)[C@@H](NC(=O)[C@@H]1CCCN(C)C1)C(C)(C)C)C1CCCCC1)C(C)(C)C21CCC1)C(=O)C(=O)NC1CC1 [Compound A-66] | 840 (≈ 633 µg/mL) | 600 (≈ 452 µg/mL) |  |  |  |
| CCC[C@H](NC(=O)[C@@H]1C[C@@]2(CN1C(=O)[C@@H](NC(=O)[C@@H](NC(=O)[C@H]1CCCN(C)C1)C(C)(C)C)C1CCCCC1)C(C)(C)C21CCC1)C(=O)C(=O)NC1CC1 [Compound A-67] | 740 (≈ 557 µg/mL) | 690 (≈ 520 µg/mL) |  |  |  |
